# Laboratory results taken from patent US8829203B2, “3′,6-substituted indirubins and their biological applications” (Centre National de la Recherche Scientifique (CNRS), priority 2008, dated 2014).
# Where a name gives a salt, the structure may show the parent alone.
# How the values were obtained:
# CDK1/cyclin B = CDK1/cyclin B kinase assay (histone H1, 15 μM ATP); format: biochemical, starfish (Marthasterias glacialis); conditions: 30° C., 30 min
# CDK5/p25 = CDK5/p25 (Homo sapiens, UniProt Q00535); assay: CDK5/p25 kinase assay (histone H1, 15 μM ATP); format: biochemical; conditions: 30° C., 30 min
# Chain of CDK5/p25 (Q00535 whole entry): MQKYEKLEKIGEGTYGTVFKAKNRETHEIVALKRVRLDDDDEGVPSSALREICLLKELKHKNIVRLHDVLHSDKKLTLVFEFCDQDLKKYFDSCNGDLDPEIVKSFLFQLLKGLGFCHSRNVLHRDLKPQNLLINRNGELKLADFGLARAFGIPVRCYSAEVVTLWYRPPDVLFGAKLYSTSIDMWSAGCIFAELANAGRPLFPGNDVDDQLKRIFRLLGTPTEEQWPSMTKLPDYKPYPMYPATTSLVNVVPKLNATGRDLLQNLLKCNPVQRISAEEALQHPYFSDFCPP
# Chain of CDK5/p25 (Q15078 99-307 partner limits assumed): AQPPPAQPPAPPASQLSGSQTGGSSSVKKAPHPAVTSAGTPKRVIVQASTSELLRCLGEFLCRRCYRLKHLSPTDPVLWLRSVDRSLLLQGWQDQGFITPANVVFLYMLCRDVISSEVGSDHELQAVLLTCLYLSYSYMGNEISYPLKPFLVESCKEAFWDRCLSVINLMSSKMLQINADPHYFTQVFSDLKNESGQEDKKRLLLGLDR
# Protocol: (§1) Blank values were subtracted and activities calculated as pmoles of phosphate incorporated during a […] incubation. The activities were expressed in % of the maximal activity, i.e. in the absence of inhibitors. Controls were performed with appropriate dilutions of dimethylsulfoxide. Phosphorylation of the substrate was assessed by the P81 phosphocellulose assay.
# CDK5/p25 was reconstituted by mixing equal amounts of recombinant human CDK5 and p25 expressed in E. coli as GST (Glutathione-S-transferase) fusion proteins and purified by affinity chromatography on glutathione-agarose (p25 is a truncated version of p35, the 35 kDa CDK5 activator). Its activity was assayed with histone H1 in buffer C as described for CDK1/cyclin B.
# GSK-3α/β = GSK-3α/β kinase assay (GS-1 substrate, 15 μM ATP); format: biochemical, porcine; conditions: 30° C., 30 min, read-out: GSK3 IC50
# Protocol: as §1
# GSK-3α/β was purified from porcine brain by affinity chromatography on immobilized axin^5. […] ATP (3,000 Ci/mmol; 10 mCi/ml) in a final volume of 30 μl. After 30 min. incubation at 30° C., 25 μl aliquots of supernatant were processed as described above.
# [1] = tested on: GSK-3-phosphorylated β-catenin; assay: β-catenin phosphorylation at GSK-3 sites in SH-SY5Y cells (Western blot / ELISA); format: cell-based, human; conditions: 6 hours, 10 μM or range of concentrations, with 2 μM MG132
# Protocol: 2a. […] The level of GSK-3-phosphorylated β-catenin was estimated by Western blotting following SDS-PAGE, using an antibody that specifically cross-reacts with GSK-3 phosphorylated β-catenin. […] 2b. Dose-response curves for a selection of indirubins were run in an ELISA assay using the same antibodies directed against GSK-3 phosphorylated β-catenin. SH-SY5Y cells were exposed for 6 hours to a range of concentrations of each indirubin, in the presence of MG132, and extracts were assessed in the ELISA assay. Activity was expressed as percentage of phosphorylated β-catenin in untreated control cells.
# Nearly confluent SH-SY5Y human neuroblastoma cells were grown in 96 plates in DMEM (supplemented with 10% FCS and antibiotics). Cells were co-treated with tested compounds and 2 μM MG132 (to allow accumulation of phosphorylated β-catenin) for 6 hours. […] Cells were then subjected to an ELISA assay using antibodies directed against Ser33/Ser37/Thr41-phosphorylated (1:1000) p-catenin obtained from Cell Signaling Technology. Results are expressed in percentage of maximal β-Catenin phosphorylation, i.e. in untreated cells exposed to MG132 only as positive control (100% phosphorylation).
# Cells were resuspended, lysed for 30 min at 4° C. in Homogenization Buffer and sonicated. After centrifugation (14000 r.p.m. for 15 min at 4° C.), the protein concentration was determined in the supernatants by the Bradford protein assay (Bio-Rad). Following heat denaturation for 5 min, proteins were separated by 10% NuPAGE pre-cast Bis-Tris Acetate polyacrylamide mini gel (Invitrogen) with MOPS SDS running buffer. Proteins were transferred to 0.45 μm nitrocellulose filters (Schleicher and Schuell). These were blocked with 5% low fat milk in Tris-Buffered Saline—Tween-20, incubated overnight at 4° C. with antibodies directed against Ser33/Ser37/Thr41-phosphorylated β-catenin (1:1000) (Cell Signaling Technology) and analyzed by Enhanced Chemiluminescence (ECL, Amersham).
# Cells were exposed to various concentrations […] of each indirubin in the presence of a constant level of MG132 (an inhibitor of the proteasome which prevented the rapid degradation of β-catenin once phosphorylated by GSK-3). The level of GSK-3-phosphorylated was estimated either by Western blotting (with an antibody that specifically cross-reacts with β-catenin when phosphorylated at a GSK-3 site) following SDS-PAGE (FIG. 2a) or by an ELISA assay (FIG. 2b). […] Dose-response curves were obtained with ELISA assay (FIG. 2b).
Structure (SMILES),IC50 (CDK1/cyclin B) [nM],IC50 (CDK5/p25) [nM],IC50 (GSK-3α/β) [nM],melting point [°C],Inhibition of β-catenin phosphorylation at GSK-3 sites [1]
"O=C1Nc2cc(Br)ccc2/C1=C1/Nc2ccccc2/C1=N\OCCN1CCCC1 [Cpd 7, (2′Z-3′E)-6-Bromoindirubin-3′-[O-(2-pyrrolidin-1-ylethyl)oxime]]",500,130,26,,
"O=C1Nc2cc(Br)ccc2/C1=C1/Nc2ccccc2/C1=N\OCC(O)CO (stereo not shown) [Cpd 3, (2′Z-3′E)-6-Bromoindirubin-3′-[O-(2,3-dihydroxypropyl)-oxime]]",110,25,34,> 300,most efficient
"CN(C)CCO/N=C1/C(=C2/C(=O)Nc3cc(Br)ccc32)Nc2ccccc21 [Cpd 5, (2′Z-3′E)-6-Bromoindirubin-3′-[O-(2-dimethylaminoethyl)-oxime]]",,,,,most efficient
"O=C1Nc2cc(Br)ccc2/C1=C1/Nc2ccccc2/C1=N\OCCN1CCCC1 [Cpd 18, (2′Z-3′)-6-Bromoindirubin-3′-[O-(2-pyrrolidin-1-ylethyl)oxime]Hydrochloride]",450,100,54,,
"O=C1Nc2cc(Br)ccc2/C1=C1/Nc2ccccc2/C1=N\OCCN1CCNCC1 [Cpd 11, (2′Z-3′E)-6-Bromoindirubin-3′-[O-(2-piperazine-1-ylethyl)oxime]]",,,,,most efficient
"CCN(CC)CCO/N=C1/C(=C2/C(=O)Nc3cc(Br)ccc32)Nc2ccccc21 [Cpd 17, (2′Z-3′E)-6-Bromoindirubin-3′-[O-(2-diethylaminoethyl)oxime]Hydrochloride]",190,40,27,,
"CN(C)CCO/N=C1/C(=C2/C(=O)Nc3cc(Br)ccc32)Nc2ccccc21 [Cpd 16, (2′Z-3′)-6-Bromoindirubin-3′-[O-(2-dimethylaminoethyl)oxime]Hydrochloride]",,,,,most efficient
O=C1Nc2cc(Br)ccc2/C1=C1/Nc2ccccc2/C1=N\OCCN(CCO)CCO [Cpd 9],,,,201,most efficient
"O=C1Nc2cc(Br)ccc2/C1=C1/Nc2ccccc2/C1=N\OCCO [Cpd 2, (2′Z-3′E)-6-Bromoindirubin-3′-[O-(2-hydroxyethyl)-oxime]]",1700,5000,1700,,
O=C1Nc2cc(Br)ccc2/C1=C1/Nc2ccccc2/C1=N\OCCN1CCN(CCO)CC1 [Cpd 13],,,,,most efficient
"CCN(CC)CCO/N=C1/C(=C2/C(=O)Nc3cc(Br)ccc32)Nc2ccccc21 [Cpd 6, (2′Z-3′E)-6-Bromoindirubin-3′-[O-(2-diethylaminoethyl)-oxime]]",90,20,35,,
"CN1C(=O)C(=C2Nc3ccccc3C2=NO)c2ccc(Br)cc21 [1-methyl-6BIO, reference compound]",,,,,ineffective
O=C1Nc2cc(Br)ccc2/C1=C1/Nc2ccccc2/C1=N\OCCN1CCN(CCO)CC1 [Cpd 24],,,,,most efficient
CN(CCON=C1C(=C2C(=O)Nc3cc(Br)ccc32)Nc2ccccc21)CC(O)CO (stereo not shown) [Cpd 21],150,100,23,,
"O=C1Nc2cc(Br)ccc2/C1=C1/Nc2ccccc2/C1=N\OCCBr [Cpd 1, (2′Z-3′E)-6-Bromoindirubin-3-[O-(2-bromoethyl)-oxime]]",> 10000,,140,252,

# Continued, in another order:
IC50 (CDK1/cyclin B) [nM],IC50 (CDK5/p25) [nM],IC50 (GSK-3α/β) [nM],melting point [°C],Structure (SMILES),Inhibition of β-catenin phosphorylation at GSK-3 sites [1]
2800,500,11,,COCCN1CCN(CCO/N=C2/C(=C3/C(=O)Nc4cc(Br)ccc43)Nc3ccccc32)CC1 [Cpd 14],
240,240,67,195,"CN(CCO/N=C1/C(=C2/C(=O)Nc3cc(Br)ccc32)Nc2ccccc21)CC(O)CO (stereo not shown) [Cpd 10, (2′Z-3′E)-6-Bromoindirubin-3′-(O-{2-[-methyl, N-(2,3-dihydroxypropyl)amino]ethyl}oxime]]",
500,330,33,,"O=C1Nc2cc(Br)ccc2/C1=C1/Nc2ccccc2/C1=N\OCCN1CCN(CCOCCO)CC1 [Cpd 26, (2′Z-3′E)-6-Bromoindirubin-3′-[O-(2-{4-[2-(2-hydroxyethoxy)-ethyl]piperazin-1-yl}ethyl)oxime]Dihydrochloride]",
400,400,7,,"CN1CCN(CCO/N=C2/C(=C3/C(=O)Nc4cc(Br)ccc43)Nc3ccccc32)CC1 [Cpd 12, (2′Z-3′E)-6-Bromoindirubin-3′-{O-[2-(4-methyl-piperazin-1-yl)ethyl]oxime}]",most efficient
1000,400,20,,COCCN1CCN(CCO/N=C2/C(=C3/C(=O)Nc4cc(Br)ccc43)Nc3ccccc32)CC1 [Cpd 25],
,,,235,"O=C1Nc2cc(Br)ccc2/C1=C1/Nc2ccccc2/C1=N\OCCN1CCOCC1 [Cpd 8, (2′Z-3′E)-6-Bromoindirubin-3′-[O-(2-morpholin-1-ylethyl)oxime]]",
,180,,,"O=C1Nc2cc(Br)ccc2/C1=C1/Nc2ccccc2/C1=N\OCCN1CCNCC1 [Cpd 22, (2′Z-3′E)-6-Bromoindirubin-3′-[O-(2-piperazine-1-ylethyl)oxime]Dihydrochloride]",most efficient
300,300,5,,"CN1CCN(CCO/N=C2/C(=C3/C(=O)Nc4cc(Br)ccc43)Nc3ccccc32)CC1 [Cpd 23, (2′Z-3′E)-6-Bromoindirubin-3′-{O-[2-(4-methylpiperazin-1-yl)ethyl]oxime}Dihydrochloride]",most efficient
> 10000,,30,237,"CCN(CC)C(=O)O/N=C1/C(=C2/C(=O)Nc3cc(Br)ccc32)Nc2ccccc21 [Cpd 4, (2′Z-3′E)-6-Bromoindirubin-3′-[O-(N,N-diethylcarbamyl)-oxime]]",
